# From patent US9271987B2, “Methods and compositions for treating Alzheimer's disease” (Cold Spring Harbor Laboratory, priority 2011, dated 2016)
# “Also recorded” adds a separate entry of the source.
# Key:
# [1] = tested on: Aβ42-expressing flies (elav-Gal4/Y; UAS-Aβ42/+); assay: Pavlovian olfactory associative immediate memory in Aβ42-expressing flies after drug feeding
# Description: Flies were raised and maintained at room temperature (22-24° C.).
# [2] = tested on: Tg(APPswe.PSEN1dE9) double transgenic mice; assay: Morris water maze in AD-model double transgenic mice; format: in vivo, mouse; settings: for Rescue of memory loss in Morris water maze: 8-month-old mice, lavage once daily from 9 days before training until end of experiments (18 days)
# human EGFR = target: T1, human EGFR (Homo sapiens, UniProt P00533); assay: p-EGFR level in COS-7 cells transfected with human EGFR wt (Western blot); format: cell-based; settings: 15 min; for Level of p-EGFR or activated EGFR after Aβ42 application: 25 μg/ml Aβ42 preparation
# T1 construct: expressed in transfected cells; host or cells: COS-7 (monkey kidney), Lipofectamine 2000, plasmid from Dr. Parsons
# Description: COS-7 cells were transfected with human EGFR^wt plasmid for 48 h, then incubated with 25 μg/ml oligomeric Aβ42 preparation for 15 min. Human EGF (0.5 μg/ml) for positive control. N=3.
# COS-7 cells were cultured in normal Dulbecco's Modified Eagle Medium (D-MEM) containing 10% fetal bovine serum (Invitrogen) at 37° C. in 5% CO2. […] Transfection as performed following the Lipofectamine 2000 manuals (Invitrogen). After 48 h, cells were washed with fresh medium once and incubated with 10 or 25 μg/ml Aβ42 oligomers for 15 min at 37° C. in 5% CO2. 0.5 μg/ml human EGF (Sigma) was used as a positive control. Cells were then washed with PBS for 3 times and collected.
# Whole fly head or cells lysates were prepared using a RIPA buffer containing 0.3% SDS, 50 mM Tris-HCl, pH 7.4, 0.5% NP-40, 1% sodium deoxycholate, 150 mM NaCl, 5 mM EDTA, 1 tablet per 50 ml complete protease inhibitor cocktail (Roche Diagnostics). Lysates were diluted in an SDS sample buffer and separated on 10-20% Tris-Tricine gels (Invitrogen), and transferred to nitrocellulose membranes (Invitrogen). The membranes were boiled in PBS for 3 min, blocked with 5% non-fat dry milk and blotted with a first antibody. First antibodies used herein included mouse anti-Aβ42 (6E10, Covance Research Products), mouse anti-dEGFR (Abcam), rabbit anti-hEGFR (Cell Signaling), mouse anti-hEGFR-p (Cell Signaling) and rabbit anti-Actin (Sigma). Data were analyzed with the ImageJ software (National Institutes of Health).
# [3] = EGFR inhibitor 0.01, 0.1, 1, 10 μg/ml, fed 4 hours each day for 7 days, 10-day-old Aβ42-expressing males
Compound,"Aβ42-induced memory loss (immediate memory) [1, 3]",Rescue of memory loss in Morris water maze [2],Level of p-EGFR or activated EGFR after Aβ42 application (human EGFR),further results
"C#Cc1cccc(Nc2ncnc3cc(OCCOC)c(OCCOC)cc23)c1 [Er, N-(3-ethynylphenyl)-6,7-bis(2-methoxyethoxy)quinazolin-4-amine]",prevented the memory loss,–,–,–
"COc1cc2ncnc(Nc3ccc(F)c(Cl)c3)c2cc1OCCCN1CCOCC1 [Ge, N-(3-chloro-4-fluoro-phenyl)-7-methoxy-6-(3-morpholin-4-ylpropoxy)quinazolin-4-amine]",prevented the memory loss,sufficient to rescue the memory loss; also recorded: rescuing effects were observed,–,Effect of two-month drug feeding on memory loss ([2]; drug feeding from 6- to 8-month-old): produced a positive effect
CC12CC3CC(C)(C1)CC(N)(C3)C2 [memantine],–,unable to improve the memory-loss phenotype,–,"Aβ42-induced memory loss (immediate memory) ([1]; memantine 20 μg/ml, fed 4 hours each day for 7 consecutive days, memory at day 10 post-eclosion, male flies): capable of preventing the memory loss; Rescue of memory loss in Morris water maze ([2]; listed as Mem): No improvement in memory; Rescue of memory loss in Morris water maze ([2]; listed as momentine): had no effect"
Aβ42 from oligomeric preparation: Synthetic and recombinant wild type Aβ42 (AnaSpec) incubated at 4° C. for 24 h to form oligomers,–,–,significantly elevated,Expression levels of EGFRs after Aβ42 application (human EGFR; 25 μg/ml Aβ42 from oligomeric preparation): not affected
monomeric Aβ42 preparation: Aβ42 peptide preparation abundant in monomers,–,–,opposite effect,–
